Values joined by “and” are separate entries in the source; they are usually repeats but may differ in a detail not shown here. Equal values may be shown once. Read-outs that look alike come from different tables or passages of the source.
Experiments:
WT HL-60 neutrophils = test: Phagocytosis assay with GFP-expressing E. coli; format: cell-based, human; conditions: Figure 7e, replicates, listed as WEL028
Experimental: (§1) HL-60 cells were differentiated to neutrophils as described above. Cells were counted and centrifuged (200g, 5 min), followed by resuspension in growth medium without antibiotics. Cells were incubated with vehicle or inhibitor (from 1000x concentrated stocks in DMSO) for 1 h at 37 °C prior to infection (1×10^6 cells in 900 µL in 12-well plate). Meanwhile, E. coli B834(DE3) constitutively expressing GFP^A206K were grown in LB medium to an OD600 of 0.4–1.0, after which bacteria were centrifuged (2000g, 5 min), washed and resuspended in PBS to appropriate density. Neutrophils were infected by addition of bacteria at multiplicity of infection (MOI) of 30 unless stated otherwise. Cells were then incubated for 1 h at 37 °C unless stated otherwise, after which cells were resuspended and transferred to Eppendorf tubes, washed in FACS buffer (1 mL, 500g, 3 min) and fixed in 1% PFA in PBS (15 min, 4 °C, in the dark). Samples were further processed as described above.
(§2) Events (generally 20,000 per condition) were gated by forward and side scatter (cells), side scatter area (singlets) and the percentage of GFP-positive cells and GFP mean fluorescence intensity (MFI) were determined based on background fluorescence for non-infected cells. The GREEN-B channel (525/30 filter) was used to detect GFP.

[1] = test system: FES^S700C HL-60 neutrophils; test: Phagocytosis assay with GFP-expressing E. coli; format: cell-based, human; conditions: for Phagocytic index / GFP-positive cells (%) / Mean GFP intensity (RFU): listed as WEL028; for GFP-positive cells (%): Sup. Fig. 15a; for Mean GFP intensity (RFU): Sup. Fig. 15b
Experimental: as §1, §2

MAP4K2 (GCK) = MAP4K2 (GCK) (Homo sapiens, UniProt Q12851); test: SelectScreen kinase assay
MAP4K2 (GCK), sequence (Q12851 whole entry): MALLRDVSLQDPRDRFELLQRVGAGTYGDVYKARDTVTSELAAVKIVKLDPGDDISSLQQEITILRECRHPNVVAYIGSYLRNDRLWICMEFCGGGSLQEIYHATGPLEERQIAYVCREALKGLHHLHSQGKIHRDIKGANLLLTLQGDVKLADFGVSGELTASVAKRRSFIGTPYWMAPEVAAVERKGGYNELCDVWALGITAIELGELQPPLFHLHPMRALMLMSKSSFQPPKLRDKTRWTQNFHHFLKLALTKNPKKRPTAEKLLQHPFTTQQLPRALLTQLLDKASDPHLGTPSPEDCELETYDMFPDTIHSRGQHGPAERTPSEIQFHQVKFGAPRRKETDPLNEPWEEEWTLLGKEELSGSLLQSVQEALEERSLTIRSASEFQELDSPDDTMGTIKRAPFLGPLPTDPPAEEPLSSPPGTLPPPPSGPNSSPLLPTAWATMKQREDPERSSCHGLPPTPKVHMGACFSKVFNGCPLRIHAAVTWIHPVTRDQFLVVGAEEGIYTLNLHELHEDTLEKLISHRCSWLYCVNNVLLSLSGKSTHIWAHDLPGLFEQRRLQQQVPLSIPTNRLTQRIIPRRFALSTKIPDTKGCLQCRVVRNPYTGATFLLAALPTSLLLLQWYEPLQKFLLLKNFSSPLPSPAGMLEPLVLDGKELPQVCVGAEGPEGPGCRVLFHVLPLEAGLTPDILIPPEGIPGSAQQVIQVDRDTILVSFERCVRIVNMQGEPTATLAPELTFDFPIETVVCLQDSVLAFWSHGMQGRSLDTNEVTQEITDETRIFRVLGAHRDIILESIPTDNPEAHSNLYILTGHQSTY
Experimental: (§3) Selectivity profiling assays were performed by the Invitrogen SelectScreen™ Services. […] The concentration of ATP was selected to be equal to the KM, unless indicated otherwise.

MAP2K3 (MEK3) = target: T1, MAP2K3 (MEK3) (Homo sapiens, UniProt P46734); test: SelectScreen kinase assay
T1 sequence (P46734 1-347): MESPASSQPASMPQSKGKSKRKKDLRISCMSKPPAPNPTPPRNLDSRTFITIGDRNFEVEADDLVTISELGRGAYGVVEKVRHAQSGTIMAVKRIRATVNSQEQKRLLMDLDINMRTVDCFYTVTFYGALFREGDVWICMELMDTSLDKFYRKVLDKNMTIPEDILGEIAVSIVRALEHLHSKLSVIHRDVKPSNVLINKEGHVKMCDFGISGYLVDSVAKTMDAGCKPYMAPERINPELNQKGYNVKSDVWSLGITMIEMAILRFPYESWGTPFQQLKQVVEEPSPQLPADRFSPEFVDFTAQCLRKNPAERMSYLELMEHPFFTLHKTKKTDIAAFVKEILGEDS
Experimental: as §3

DYRK3 = DYRK3 (Homo sapiens, UniProt O43781); test: SelectScreen kinase assay
DYRK3, sequence (O43781 whole entry): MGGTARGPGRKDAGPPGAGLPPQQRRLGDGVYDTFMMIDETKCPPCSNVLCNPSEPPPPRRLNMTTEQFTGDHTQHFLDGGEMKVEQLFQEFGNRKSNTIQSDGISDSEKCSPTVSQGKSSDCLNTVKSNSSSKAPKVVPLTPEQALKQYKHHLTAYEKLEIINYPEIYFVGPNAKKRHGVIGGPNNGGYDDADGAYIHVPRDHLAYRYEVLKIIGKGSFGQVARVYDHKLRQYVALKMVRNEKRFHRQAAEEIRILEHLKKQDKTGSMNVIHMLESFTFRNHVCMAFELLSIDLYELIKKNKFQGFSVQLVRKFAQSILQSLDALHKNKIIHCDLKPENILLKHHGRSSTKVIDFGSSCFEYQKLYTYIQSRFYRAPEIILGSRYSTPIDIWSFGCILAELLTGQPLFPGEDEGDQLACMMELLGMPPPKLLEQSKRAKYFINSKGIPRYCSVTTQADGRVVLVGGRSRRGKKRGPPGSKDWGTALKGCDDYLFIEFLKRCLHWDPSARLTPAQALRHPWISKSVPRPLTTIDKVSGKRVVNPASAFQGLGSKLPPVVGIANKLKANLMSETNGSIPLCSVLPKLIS
Experimental: as §3

STK22B (TSSK2) = target: T2, STK22B (TSSK2) (Homo sapiens, UniProt Q96PF2); test: SelectScreen kinase assay
T2 sequence (Q96PF2 1-358): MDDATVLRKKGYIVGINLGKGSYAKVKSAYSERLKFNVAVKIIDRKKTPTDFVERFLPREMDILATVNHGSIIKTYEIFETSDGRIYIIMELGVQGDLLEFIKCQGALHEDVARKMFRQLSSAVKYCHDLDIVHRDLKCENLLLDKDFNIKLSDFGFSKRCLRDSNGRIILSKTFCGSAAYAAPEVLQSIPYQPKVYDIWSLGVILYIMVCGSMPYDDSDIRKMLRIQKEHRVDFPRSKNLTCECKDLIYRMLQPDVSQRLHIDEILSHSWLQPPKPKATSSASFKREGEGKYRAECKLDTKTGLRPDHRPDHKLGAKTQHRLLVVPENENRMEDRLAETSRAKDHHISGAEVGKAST
Experimental: as §3

PLK2 = PLK2 (Homo sapiens, UniProt Q9NYY3); test: SelectScreen kinase assay
PLK2, sequence (Q9NYY3 whole entry): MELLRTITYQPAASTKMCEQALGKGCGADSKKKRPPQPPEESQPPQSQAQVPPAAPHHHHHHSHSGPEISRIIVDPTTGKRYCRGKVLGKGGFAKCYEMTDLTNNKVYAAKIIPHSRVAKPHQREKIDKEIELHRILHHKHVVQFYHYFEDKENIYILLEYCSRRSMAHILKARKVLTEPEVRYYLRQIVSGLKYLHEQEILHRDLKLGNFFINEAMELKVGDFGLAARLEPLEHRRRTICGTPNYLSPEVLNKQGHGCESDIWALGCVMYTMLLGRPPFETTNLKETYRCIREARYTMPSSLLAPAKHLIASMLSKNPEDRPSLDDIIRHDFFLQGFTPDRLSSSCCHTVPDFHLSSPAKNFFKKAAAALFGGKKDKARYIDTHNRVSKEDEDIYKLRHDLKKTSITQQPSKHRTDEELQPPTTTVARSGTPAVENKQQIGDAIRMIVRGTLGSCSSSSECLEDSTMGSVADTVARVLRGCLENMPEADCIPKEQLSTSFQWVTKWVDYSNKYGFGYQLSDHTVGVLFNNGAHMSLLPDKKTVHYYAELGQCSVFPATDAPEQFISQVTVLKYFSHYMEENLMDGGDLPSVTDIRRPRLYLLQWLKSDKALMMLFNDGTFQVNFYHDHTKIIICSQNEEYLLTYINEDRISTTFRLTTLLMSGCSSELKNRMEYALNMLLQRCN
Experimental: as §3

PHKG2 = PHKG2 (Homo sapiens, UniProt P15735); test: SelectScreen kinase assay
PHKG2, sequence (P15735 whole entry): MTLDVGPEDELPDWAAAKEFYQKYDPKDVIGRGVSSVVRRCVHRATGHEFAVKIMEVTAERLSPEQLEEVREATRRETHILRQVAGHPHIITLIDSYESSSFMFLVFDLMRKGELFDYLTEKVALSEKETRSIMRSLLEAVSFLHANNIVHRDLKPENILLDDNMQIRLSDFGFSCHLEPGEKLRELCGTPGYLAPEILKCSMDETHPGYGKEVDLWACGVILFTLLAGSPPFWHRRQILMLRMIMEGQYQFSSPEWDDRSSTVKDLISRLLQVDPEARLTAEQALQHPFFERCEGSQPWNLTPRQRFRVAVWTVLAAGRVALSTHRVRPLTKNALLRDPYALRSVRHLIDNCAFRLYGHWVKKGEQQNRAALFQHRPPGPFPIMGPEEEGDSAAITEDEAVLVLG
Experimental: as §3

SPHK1 = SPHK1 (Homo sapiens, UniProt Q9NYA1); test: SelectScreen kinase assay
SPHK1, sequence (Q9NYA1 whole entry): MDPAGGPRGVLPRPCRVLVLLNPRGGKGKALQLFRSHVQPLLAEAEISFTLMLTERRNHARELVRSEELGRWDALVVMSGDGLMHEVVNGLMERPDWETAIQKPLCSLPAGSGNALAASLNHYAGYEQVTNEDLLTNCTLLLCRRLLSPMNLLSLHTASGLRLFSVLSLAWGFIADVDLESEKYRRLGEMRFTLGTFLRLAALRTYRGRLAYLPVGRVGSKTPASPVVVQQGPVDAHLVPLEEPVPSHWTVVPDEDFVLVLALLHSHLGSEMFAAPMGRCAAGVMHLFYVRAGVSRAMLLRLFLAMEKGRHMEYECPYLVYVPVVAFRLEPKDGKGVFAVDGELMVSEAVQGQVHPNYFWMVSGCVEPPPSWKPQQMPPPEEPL
Experimental: as §3

[2] = target: T3, MAP3K7/MAP3K7IP1 (TAK1-TAB1) (Homo sapiens, UniProt O43318); test: SelectScreen kinase assay
T3 sequence (O43318 1-303 limits assumed): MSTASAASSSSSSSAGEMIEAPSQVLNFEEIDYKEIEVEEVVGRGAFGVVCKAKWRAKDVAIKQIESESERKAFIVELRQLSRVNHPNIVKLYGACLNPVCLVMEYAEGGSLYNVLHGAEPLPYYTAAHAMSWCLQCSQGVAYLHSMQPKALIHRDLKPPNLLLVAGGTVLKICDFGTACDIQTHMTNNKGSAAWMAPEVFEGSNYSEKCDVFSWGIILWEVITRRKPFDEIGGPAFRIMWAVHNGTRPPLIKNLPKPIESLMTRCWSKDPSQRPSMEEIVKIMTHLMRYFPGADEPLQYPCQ
T3 sequence (Q15750 437-504 partner limits assumed): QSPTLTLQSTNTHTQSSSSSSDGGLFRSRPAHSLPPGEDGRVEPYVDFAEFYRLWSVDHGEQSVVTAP
Experimental: as §3

PDGFRB (PDGFR beta) = PDGFRB (PDGFR beta) (Homo sapiens, UniProt P09619); test: SelectScreen kinase assay
PDGFRB (PDGFR beta), sequence (P09619 33-1106): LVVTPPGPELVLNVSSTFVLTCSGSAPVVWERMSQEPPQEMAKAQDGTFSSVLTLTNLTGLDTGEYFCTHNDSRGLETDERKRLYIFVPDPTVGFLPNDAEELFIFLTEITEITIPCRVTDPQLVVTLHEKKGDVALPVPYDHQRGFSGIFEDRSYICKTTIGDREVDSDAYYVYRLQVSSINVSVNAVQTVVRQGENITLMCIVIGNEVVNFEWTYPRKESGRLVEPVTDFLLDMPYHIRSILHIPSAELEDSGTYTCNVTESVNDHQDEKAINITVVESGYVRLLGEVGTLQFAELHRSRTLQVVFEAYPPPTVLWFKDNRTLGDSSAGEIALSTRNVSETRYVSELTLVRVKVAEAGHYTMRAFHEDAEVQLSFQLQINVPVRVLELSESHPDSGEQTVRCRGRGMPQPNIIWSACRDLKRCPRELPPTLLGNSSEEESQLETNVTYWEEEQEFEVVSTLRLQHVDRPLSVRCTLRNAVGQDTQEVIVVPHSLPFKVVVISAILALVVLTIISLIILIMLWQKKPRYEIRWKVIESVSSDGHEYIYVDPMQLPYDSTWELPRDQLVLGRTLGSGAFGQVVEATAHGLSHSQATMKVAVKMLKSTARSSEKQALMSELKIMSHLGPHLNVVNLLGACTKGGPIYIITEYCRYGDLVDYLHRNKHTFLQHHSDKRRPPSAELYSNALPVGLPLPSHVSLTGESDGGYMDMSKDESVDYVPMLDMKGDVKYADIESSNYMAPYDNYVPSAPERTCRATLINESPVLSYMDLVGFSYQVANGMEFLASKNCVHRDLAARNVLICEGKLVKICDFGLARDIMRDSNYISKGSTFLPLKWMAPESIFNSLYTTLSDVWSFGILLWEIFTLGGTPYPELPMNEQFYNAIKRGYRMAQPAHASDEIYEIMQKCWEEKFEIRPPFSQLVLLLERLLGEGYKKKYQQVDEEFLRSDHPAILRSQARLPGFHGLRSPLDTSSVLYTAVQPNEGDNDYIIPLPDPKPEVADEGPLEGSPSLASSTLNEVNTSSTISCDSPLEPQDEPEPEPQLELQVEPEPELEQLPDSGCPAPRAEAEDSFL
Experimental: as §3

[3] = 1 h, 1 μM WEL028, 1 h preincubation

## C#CCOc1ccc(Nc2ncc(Cl)c(Nc3ccccc3NC(=O)C=C)n2)c(OC)c1 [Compound 6]
WT HL-60 neutrophils
  Phagocytic index: 160.957 and 207.068 and 250.511 and 251.311 and 284.865
[1]; 100 nM, 1 h, E. coli MOI 30, 1 h
  Reduction of phagocytic index: 30–50%
[1]; Figure 7e, S700C, replicates
  Phagocytic index: 145.478 and 171.315 and 187.921 and 222.417 and 183.286
[1]; Figure 7i, replicates
  Phagocytic index: 197.442 and 178.118 and 223.309 and 208.369 and 195.015
[1]; MOI 0, Sup. Fig. 15d
  Phagocytic index: 11.3713 and 7.7474 and 12.7423
[1]; MOI 5, Sup. Fig. 15d
  Phagocytic index: 256.754 and 179.658 and 258.748
[1]; MOI 10, Sup. Fig. 15d
  Phagocytic index: 353.426 and 268.67 and 311.603
[1]; MOI 30, Sup. Fig. 15d
  Phagocytic index: 419.958 and 366.26 and 418.025
[1]; MOI 50, Sup. Fig. 15d
  Phagocytic index: 485.281 and 414.473 and 534.485
[1]; infection time 0 min
  GFP-positive cells (%): 18.616% and 19.116% and 23.8538%
  Mean GFP intensity (RFU): 251.299 RFU and 272.27 RFU and 265.594 RFU
[1]; infection time 0 min, Sup. Fig. 15c
  Phagocytic index: 46.7819 and 52.047 and 63.3542
[1]; infection time 15 min
  GFP-positive cells (%): 35.6181% and 40.0295% and 44.0403%
  Mean GFP intensity (RFU): 355.136 RFU and 341.544 RFU and 336.989 RFU
[1]; infection time 15 min, Sup. Fig. 15c
  Phagocytic index: 126.493 and 136.719 and 148.411
[1]; infection time 30 min
  GFP-positive cells (%): 53.551% and 63.4482% and 62.11%
  Mean GFP intensity (RFU): 496.403 RFU and 400.363 RFU and 431.37 RFU
[1]; infection time 30 min, Sup. Fig. 15c
  Phagocytic index: 265.829 and 254.023 and 267.924
[1]; infection time 60 min
  GFP-positive cells (%): 64.7116% and 74.5174% and 69.3761%
  Mean GFP intensity (RFU): 571.855 RFU and 482.086 RFU and 578.862 RFU
[1]; infection time 60 min, Sup. Fig. 15c
  Phagocytic index: 370.057 and 359.238 and 401.592
MAP4K2 (GCK); [3]
  inhibition at 1 µM: -12%
MAP4K2 (GCK); MAP4K2 (GCK), 1 µM, ZLYTE, ATP Km app
  Inhibition at 1 µM (%): -23%
MAP2K3 (MEK3); [3]
  inhibition at 1 µM: 46%
MAP2K3 (MEK3); MAP2K3 (MEK3), 1 µM, LanthaScreen Binding, listed as WEL028, 1 µM
  Inhibition at 1 µM (%): 53%
MAP2K3 (MEK3); read-out: Inhibition at 1 µM (%), MAP2K3 (MEK3), 1 µM, LanthaScreen Binding
  inhibition at 1 µM: 38%
DYRK3; [3]
  inhibition at 1 µM: 2%
DYRK3; DYRK3, 1 µM, ZLYTE, ATP Km app, listed as WEL028, 1 µM
  Inhibition at 1 µM (%): 0% and 4%
STK22B (TSSK2); 1 µM, ZLYTE, ATP Km app, listed as WEL028, 1 µM
  Inhibition at 1 µM (%): 17%
STK22B (TSSK2); [3]
  inhibition at 1 µM: 18%
STK22B (TSSK2); read-out: Inhibition at 1 µM (%), 1 µM, ZLYTE, ATP Km app
  inhibition at 1 µM: 18%
PLK2; 1 μM WEL028, 1 h preincubation
  Inhibition (%): 12%
PLK2; PLK2, 1 µM, ZLYTE, ATP Km app, listed as WEL028, 1 µM
  Inhibition at 1 µM (%): 15%
PLK2; read-out: Inhibition at 1 µM (%), PLK2, 1 µM, ZLYTE, ATP Km app
  inhibition at 1 µM: 8%
PHKG2; [3]
  inhibition at 1 µM: 0%
PHKG2; PHKG2, 1 µM, ZLYTE, ATP Km app
  Inhibition at 1 µM (%): 11%
SPHK1; 1 µM, Adapta, ATP Km app, listed as WEL028, 1 µM
  Inhibition at 1 µM (%): 4% and 1%
SPHK1; [3]
  inhibition at 1 µM: 2%
[2]; [3]
  inhibition at 1 µM: 13%
[2]; MAP3K7/MAP3K7IP1 (TAK1-TAB1), 1 µM, LanthaScreen Binding, listed as WEL028, 1 µM
  Inhibition at 1 µM (%): 15%
[2]; read-out: Inhibition at 1 µM (%), MAP3K7/MAP3K7IP1 (TAK1-TAB1), 1 µM, LanthaScreen Binding
  inhibition at 1 µM: 11%
PDGFRB (PDGFR beta); [3]
  inhibition at 1 µM: 22%
PDGFRB (PDGFR beta); PDGFRB (PDGFR beta), 1 µM, ZLYTE, ATP Km app, listed as WEL028, 1 µM
  Inhibition at 1 µM (%): 23%
PDGFRB (PDGFR beta); read-out: Inhibition at 1 µM (%), PDGFRB (PDGFR beta), 1 µM, ZLYTE, ATP Km app
  inhibition at 1 µM: 21%

Source: article PMC7316778 (Nature Communications, 2020)
